Results on 25 compounds are retold here after patent publication US9266883B2, “Ring-fused bicyclic pyridyl derivatives as FGFR4 inhibitors” (Novartis AG, priority 2013, dated 2016).

Where two headings read alike, the source gives them in different places. Bounds are passed on as bounds.

For assay [1], the target named is FGFR4 (GST-FGFR4(388-802)) (Homo sapiens (Human), UniProt P22455). The assay can be described thus: In-vitro biochemical kinase assay for FGFR4 (Caliper microfluidic mobility shift).
A further assay addresses Tel-FGFR4 (Homo sapiens (Human), UniProt P22455). The experiment in a line: In vitro cellular kinase assay for FGFR4 (BaF3-Tel-FGFR4 cells, MSD capture ELISA of tyrosine phosphorylation). It counts as cell-based. (In general: An ELISA detects its analyte on a solid surface through an enzyme-linked reagent.)
Assay [2] has as its system HuH-7 hepatocellular carcinoma cells. The experiment in a line: CellTiter Glo (CTG) Assay. The note with it: Homo sapiens, Huh-7, 72 h, read-out: HUH7 proliferation (nM) CTG. (In general: Cellular ATP, detected with luciferase, serves as a proxy for viable cell number.)
Where [3] appears, read: read-out: Biochemical FGFR4 IC50.
The mark [4] stands for this setting: BaF3-Tel-FGFR4 cells, 1 hour incubation, read-out: Cellular BaF3 FGFR4 IC50.
The mark [5] stands for this setting: biochemical FGFR4 assay, read-out: Biochemical IC50.
The mark [6] stands for this setting: Cellular BaF3 FGFR4 assay, read-out: Cellular IC50.

Tel-FGFR4, sequence (P22455 other isoform, or with tags, fused parts or gaps): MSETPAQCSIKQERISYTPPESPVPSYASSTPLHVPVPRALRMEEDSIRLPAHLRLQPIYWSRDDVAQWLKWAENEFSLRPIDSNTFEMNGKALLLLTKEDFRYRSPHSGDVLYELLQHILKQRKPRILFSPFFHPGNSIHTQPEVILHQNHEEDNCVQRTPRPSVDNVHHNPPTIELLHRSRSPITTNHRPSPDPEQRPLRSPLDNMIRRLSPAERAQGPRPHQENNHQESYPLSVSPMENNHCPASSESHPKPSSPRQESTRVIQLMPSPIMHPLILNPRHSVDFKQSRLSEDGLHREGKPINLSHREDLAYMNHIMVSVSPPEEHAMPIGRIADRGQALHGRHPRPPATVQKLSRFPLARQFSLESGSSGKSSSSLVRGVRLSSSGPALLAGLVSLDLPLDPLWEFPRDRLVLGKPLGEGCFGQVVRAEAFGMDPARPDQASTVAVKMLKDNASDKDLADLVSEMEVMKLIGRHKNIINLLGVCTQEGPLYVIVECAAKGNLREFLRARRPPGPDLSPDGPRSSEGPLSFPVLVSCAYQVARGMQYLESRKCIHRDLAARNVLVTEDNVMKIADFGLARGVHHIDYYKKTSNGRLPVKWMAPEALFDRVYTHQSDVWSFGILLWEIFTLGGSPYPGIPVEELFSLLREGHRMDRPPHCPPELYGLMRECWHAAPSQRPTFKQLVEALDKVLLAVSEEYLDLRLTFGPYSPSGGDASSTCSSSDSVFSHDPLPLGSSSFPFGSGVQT
FGFR4 (GST-FGFR4(388-802)), sequence (P22455 388-802): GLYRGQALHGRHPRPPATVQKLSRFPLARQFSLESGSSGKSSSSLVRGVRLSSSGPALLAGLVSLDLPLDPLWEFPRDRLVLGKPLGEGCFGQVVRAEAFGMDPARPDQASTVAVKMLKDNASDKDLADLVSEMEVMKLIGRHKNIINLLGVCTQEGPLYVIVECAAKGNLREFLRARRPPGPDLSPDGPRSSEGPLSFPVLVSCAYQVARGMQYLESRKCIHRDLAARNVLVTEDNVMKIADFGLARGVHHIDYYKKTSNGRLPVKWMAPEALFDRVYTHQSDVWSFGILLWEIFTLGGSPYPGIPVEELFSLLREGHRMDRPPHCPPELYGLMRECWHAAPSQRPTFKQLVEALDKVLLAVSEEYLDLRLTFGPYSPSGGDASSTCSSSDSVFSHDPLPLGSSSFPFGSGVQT

`COC(C)CNc1cc(NC(=O)N2CCCc3cc(CO)c(C=O)nc32)ncc1C#N` (racemic) [Example 57, N-(5-cyano-4-((2-methoxypropyl)amino)pyridin-2-yl)-7-formyl-6-(hydroxymethyl)-3,4-dihydro-1,8-naphthyridine-1(2H)-carboxamide]: the IC50 stood at 0.0039 µM in assay [1] (setting [3]), 0.0113 µM at Tel-FGFR4 (setting [4]) and 436 nM in assay [2].

Regarding `COCCNc1cc(NC(=O)N2CCCc3cc(CN4C[C@@H](C)N[C@@H](C)C4)c(C=O)nc32)ncc1C#N` [Example 242, N-(5-cyano-4-((2-methoxyethyl)amino)pyridin-2-yl)-6-(((3R,5S)-3,5-dimethylpiperazin-1-yl)methyl)-7-formyl-3,4-dihydro-1,8-naphthyridine-1(2H)-carboxamide], the IC50 was 0.0026 µM in assay [1] (setting [3]), 0.027 µM on Tel-FGFR4 (setting [4]) and 1780 nM in assay [2].

Take `COCCOc1cc(NC(=O)N2c3nc(C=O)c(CN4CCN(C)CC4=O)cc3CC[C@@H]2C)ncc1C#N` [Example 226, (S)-N-(5-cyano-4-(2-methoxyethoxyl)pyridin-2-yl)-7-formyl-2-methyl-6-((4-methyl-2-oxopiperazin-1-yl)methyl)-3,4-dihydro-1,8-naphthyridine-1(2H)-carboxamide]: the IC50 in assay [2] is 134 nM.

On to `COCCNc1cc(NC(=O)N2CCCc3cc(CN4CCCC45COC5)c(C=O)nc32)ncc1C#N` [Example 193, 6-(2-oxa-5-azaspiro[3.4]octan-5-ylmethyl)-N-(5-cyano-4-((2-methoxyethyl)amino)pyridin-2-yl)-7-formyl-3,4-dihydro-1,8-naphthyridine-1(2H)-carboxamide], for which, in assay [2], the IC50 turned out to be 2780 nM.

In the case of `CC(C)Oc1cc(NC(=O)N2c3nc(C=O)c(CN4CCN(C)CC4=O)cc3CC[C@@H]2C)ncc1C#N` [Example 227, (S)-N-(5-cyano-4-isopropoxypyridin-2-yl)-7-formyl-2-methyl-6-((4-methyl-2-oxopiperazin-1-yl)methyl)-3,4-dihydro-1,8-naphthyridine-1(2H)-carboxamide], in assay [2], the IC50 worked out at 104 nM.

On to `CN1CCCC(COc2cc(NC(=O)N3CCCc4cc(CO)c(C=O)nc43)ncc2C#N)C1` (racemic) [Example 73, N-(5-cyano-4-((1-methylpiperidin-3-yl)methoxy)pyridin-2-yl)-7-formyl-6-(hydroxymethyl)-3,4-dihydro-1,8-naphthyridine-1(2H)-carboxamide], for which, in assay [2], the IC50 came to 502 nM.

Consider `COCCNc1cc(NC(=O)N2CCCc3cc(CN4C(=O)COC[C@H]4C)c(C=O)nc32)ncc1C#N` [Example 118, (R)-N-(5-cyano-4-((2-methoxyethyl)amino)pyridin-2-yl)-7-formyl-6-((3-methyl-5-oxomorpholino)methyl)-3,4-dihydro-1,8-naphthyridine-1(2H)-carboxamide], for which the IC50 in assay [2] came out at 101 nM.

For `COCCNc1cc(NC(=O)N2CCCc3cc(C(C)N(C)C(C)=O)c(C=O)nc32)ncc1C#N` (racemic) [Example 135, N-(5-cyano-4-((2-methoxyethyl)amino)pyridin-2-yl)-7-formyl-6-(1-(N-methylacetamido)ethyl)-3,4-dihydro-1,8-naphthyridine-1(2H)-carboxamide], the IC50 in assay [2] was 2850 nM.

As for `COCCNc1cc(NC(=O)N2CCCc3cc(-c4cccnc4)c(C=O)nc32)ncc1C#N` [Example 256, N-(5-cyano-4-((2-methoxyethyl)amino)pyridin-2-yl)-7-formyl-6-(pyridin-3-yl)-3,4-dihydro-1,8-naphthyridine-1(2H)-carboxamide], the IC50 in assay [2] is 1360 nM.

With `N#Cc1cnc(NC(=O)N2CCCc3ccc(C=O)nc32)cc1OCC1CCCCO1` (racemic) [Example 36, N-(5-cyano-4-((tetrahydro-2H-pyran-2-yl)methoxy)pyridin-2-yl)-7-formyl-3,4-dihydro-1,8-naphthyridine-1(2H)-carboxamide], in assay [2], the IC50 was more than 3000 nM.

For the compound `CN1CCN(Cc2cc3c(nc2C=O)N(C(=O)Nc2cc(NCCOC(C)(C)C)c(C#N)cn2)CCC3)C(=O)C1` [Example 196, N-(4-((2-(tert-butoxy)ethyl)amino)-5-cyanopyridin-2-yl)-7-formyl-6-((4-methyl-2-oxopiperazin-1-yl)methyl)-3,4-dihydro-1,8-naphthyridine-1(2H)-carboxamide], the IC50 on Tel-FGFR4 (setting [4]) is 0.018 µM; in assay [2], 150 nM.

`COCCNc1cc(NC(=O)N2CCCc3cc(CN4C(=O)COC[C@@H]4C)c(C=O)nc32)ncc1C#N` [Example 120, (S)-N-(5-cyano-4-((2-methoxyethyl)amino)pyridin-2-yl)-7-formyl-6-((3-methyl-5-oxomorpholino)methyl)-3,4-dihydro-1,8-naphthyridine-1(2H)-carboxamide]: in assay [2], the IC50 was 160 nM.

`COCCNc1cc(NC(=O)N2CCCc3cc(CN4CCN(C)C(C)(C)C4=O)c(C=O)nc32)ncc1C#N` [Example 245, N-(5-cyano-4-((2-methoxyethyl)amino)pyridin-2-yl)-7-formyl-6-((3,3,4-trimethyl-2-oxopiperazin-1-yl)methyl)-3,4-dihydro-1,8-naphthyridine-1(2H)-carboxamide]: the IC50 at Tel-FGFR4 (setting [4]) turned out to be 0.0115 µM; in assay [2] it was 103 nM.

As to `CC(=O)N(C)Cc1cc2c(nc1C=O)N(C(=O)Nc1cc(SC(C)C)c(C#N)cn1)CCC2` [Example 240, N-(5-cyano-4-(isopropylthio)pyridin-2-yl)-7-formyl-6-((N-methylacetamido)methyl)-3,4-dihydro-1,8-naphthyridine-1(2H)-carboxamide], the IC50 was less than 0.0001 µM in assay [1] (setting [3]) and 0.0111 µM at Tel-FGFR4 (setting [4]).

`COCCNc1cc(NC(=O)N2CCCc3cc(CN(C)C(C)=O)c(C=O)nc32)ncc1C(F)(F)F` [7-formyl-N-(4-((2-methoxyethyl)amino)-5-(trifluoromethyl)pyridin-2-yl)-6-((N-methylacetamido)methyl)-3,4-dihydro-1,8-naphthyridine-1(2H)-carboxamide]: the IC50 came to 0.0023 µM in assay [1] (setting [5]) and 0.0115 µM at Tel-FGFR4 (setting [6]).

As to `COC(C)CNc1cc(NC(=O)N2CCCc3cc(C(F)F)c(C=O)nc32)ncc1C#N` (stereo not shown) [N-(5-cyano-4-((2-methoxypropyl)amino)pyridin-2-yl)-6-(difluoromethyl)-7-formyl-3,4-dihydro-1,8-naphthyridine-1(2H)-carboxamide], the IC50 in assay [1] (setting [5]) stood at 0.0011 µM; at Tel-FGFR4 (setting [6]), 0.0188 µM.

Regarding `CC(C)Oc1cc(NC(=O)N2CCCc3cc(CN4CCNCC4=O)c(C=O)nc32)ncc1C#N` [N-(5-cyano-4-isopropoxypyridin-2-yl)-7-formyl-6-((2-oxopiperazin-1-yl)methyl)-3,4-dihydro-1,8-naphthyridine-1(2H)-carboxamide], the IC50 in assay [1] (setting [5]) stood at 0.0021 µM; at Tel-FGFR4 (setting [6]), 0.0099 µM.

Turning to `N#Cc1cnc(NC(=O)N2CCCc3ccc(C=O)nc32)cc1C#N` [Example 17, N-(4,5-dicyanopyridin-2-yl)-7-formyl-3,4-dihydro-1,8-naphthyridine-1(2H)-carboxamide], the results for the IC50 (in assay [1] (setting [3]); on Tel-FGFR4 (setting [4])) were 0.04 µM and 0.914 µM, respectively.

In the case of `CC(C)Oc1cc(NC(=O)N2CCCc3cc(CN4CCCC4)c(C=O)nc32)ncc1C#N` [N-(5-cyano-4-isopropoxypyridin-2-yl)-7-formyl-6-(pyrrolidin-1-ylmethyl)-3,4-dihydro-1,8-naphthyridine-1(2H)-carboxamide], the IC50 in assay [1] (setting [5]) is 0.0264 µM; on Tel-FGFR4 (setting [6]), 0.854 µM.

As for `COCCNc1cc(NC(=O)N2CCCc3cc(CN4CC[N+](C)([O-])CC4=O)c(C=O)nc32)ncc1C#N` (stereo not shown) [Example 222, 4-((8-((5-cyano-4-((2-methoxyethyl)amino)pyridin-2-yl)carbamoyl)-2-formyl-5,6,7,8-tetrahydro-1,8-naphthyridin-3-yl)methyl)-1-methyl-3-oxopiperazine 1-oxide], the IC50 in assay [1] (setting [3]) is less than 0.0048 µM; on Tel-FGFR4 (setting [4]), 0.0413 µM.

`CC(C)Oc1cc(NC(=O)N2CCCc3cc(CN4CCN(C)CC4=O)c(C=O)nc32)ncc1C#N` [Example 92, N-(5-cyano-4-isopropoxypyridin-2-yl)-7-formyl-6-((4-methyl-2-oxopiperazin-1-yl)methyl)-3,4-dihydro-1,8-naphthyridine-1(2H)-carboxamide]: the results for the IC50 (in assay [1] (setting [3]); at Tel-FGFR4 (setting [4])) were 0.0007 µM and 0.0033 µM, respectively.

As to `COC[C@H](C)Oc1nc(NC(=O)N2CCCc3cc(CO)c(C=O)nc32)ncc1Cl` [Example 58, (S)-N-(5-chloro-4-((1-methoxypropan-2-yl)oxy)pyrimidin-2-yl)-7-formyl-6-(hydroxymethyl)-3,4-dihydro-1,8-naphthyridine-1(2H)-carboxamide], the figures for the IC50 (in assay [1] (setting [3]); at Tel-FGFR4 (setting [4])) were 0.16 µM and 0.898 µM, respectively.

Consider `COC(C)(C)CNc1cc(NC(=O)N2CCCc3cc(CN(C)C(C)=O)c(C=O)nc32)ncc1C#N` [N-(5-cyano-4-((2-methoxy-2-methylpropyl)amino)pyridin-2-yl)-7-formyl-6-((N-methylacetamido)methyl)-3,4-dihydro-1,8-naphthyridine-1(2H)-carboxamide], for which the IC50 worked out at 0.0007 µM in assay [1] (setting [5]) and 0.0049 µM at Tel-FGFR4 (setting [6]).

`COC[C@@H](C)Nc1cc(NC(=O)N2CCCc3cc(CN(C)C(C)=O)c(C=O)nc32)ncc1C#N` [(R)-N-(5-cyano-4-((1-methoxypropan-2-yl)amino)pyridin-2-yl)-7-formyl-6-((N-methylacetamido)methyl)-3,4-dihydro-1,8-naphthyridine-1(2H)-carboxamide]: the IC50 in assay [1] (setting [5]) was determined as 0.0018 µM; on Tel-FGFR4 (setting [6]), 0.0045 µM.

For `CCN(Cc1cc2c(nc1C=O)N(C(=O)Nc1cc(NC)c(C#N)cn1)CCC2)C(=O)CN(C)C` [N-(5-cyano-4-(methylamino)pyridin-2-yl)-6-((2-(dimethylamino)-N-ethylacetamido)methyl)-7-formyl-3,4-dihydro-1,8-naphthyridine-1(2H)-carboxamide], the IC50 in assay [1] (setting [5]) is 0.012 µM; at Tel-FGFR4 (setting [6]), 0.013 µM.
